“And” between values parts separate entries of the source, which are not always exact repeats. Equal entries are not always repeated.
What was measured:
Format in all cases: biochemical
caspase-3 [1] = biological target: T1, caspase-3 (Homo sapiens, UniProt P42574); assay: Enzymatic kinetic studies, determination of kobs/I inhibition parameter; conditions: substrate Ac-DEVD-ACC (100uM), 37°C, dot = thousands separator; for kinact/KI: 0.5 h, pH 7.3, pseudo-first-order conditions; for kobs/I: pseudo-first-order conditions
T1 construct: made in house
T1 sequence (P42574 29-175 limits assumed): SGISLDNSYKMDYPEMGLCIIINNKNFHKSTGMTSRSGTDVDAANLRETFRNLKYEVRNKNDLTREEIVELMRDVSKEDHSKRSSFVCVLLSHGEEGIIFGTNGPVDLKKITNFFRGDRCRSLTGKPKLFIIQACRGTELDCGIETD
T1 sequence (P42574 176-277 limits assumed): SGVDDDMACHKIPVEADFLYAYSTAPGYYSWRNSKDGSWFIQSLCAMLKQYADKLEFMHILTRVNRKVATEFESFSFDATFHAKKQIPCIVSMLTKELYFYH
Procedure: (§1) The measurement of kobs/l inhibition parameter (second order rate of enzyme inhibition) of synthesized inhibitors towards caspases-2, -3, and -8 was performed using a fMax spectrofluorimeter (Molecular Devices, Sunnyvale, CA, USA) operating in fluorescence kinetic mode in 96-well Corning (Corning, NY, USA) plates. Before kinetic analysis, all caspases were active site-titrated using the zVAD-fmk inhibitor (Cayman Chemical Company, Cat No. 14467). The caspases assay buffer was 10% w/v sucrose, 1M sodium citrate, 20 mM Pipes, 10 mM NaCl, 1 mM EDTA, and 10 mM DTT (pH = 7.3). Buffers were prepared at room temperature, and all kinetic assays were performed at 37°C. The kobs/l parameter was measured under pseudo-first-order kinetic conditions ([I] » [E]). Inhibitor (20uL) was diluted in a 96-well plate and mixed with the appropriate substrate (20uL); NH-ldc-hGlu-Thr(Bzl)-Ser-Asp-ACC (50uM) for caspase-2, Ac-DEVD-ACC (100uM) for caspase-3 and Ac-LEHD-ACC (100uM) for caspase-8. The ACC fluorescence was monitored using 355 nm (excitation) and 460 nm (emission) wavelengths. The substrate-inhibitor mixture (40uL in total) were pre-incubated at 37C for 15 min. At the same time in a separate tube, the caspase was preincubated in assay buffer at 37C, and after 15 min, the enzyme was added to wells (60uL per well, total reaction volume 100uL) and the fluorescence was monitored for 30min, starting immediately. Second-order rate of inhibition (kobs/l) was determined in at least three independent experiments and presented as an average value. GraphPad Prism 7 software was used for calculations (see figure 2).
(§2) The detailed protocol for the expression and purification of human apoptotic caspases can be found elsewhere (Stennicke, 1999).

caspase-8 [2] = biological target: T2, caspase-8 (Homo sapiens, UniProt Q14790); assay: as above; conditions: substrate Ac-LEHD-ACC (100uM), 37°C, dot = thousands separator; for kobs/I: pseudo-first-order conditions
T2 construct: made in house
Procedure: as §1, §2

caspase-2 [3] = biological target: T3, caspase-2 (Homo sapiens, UniProt P42575); assay: as above; design: made in house; conditions: for kobs/I: Caspase-2, pseudo-first-order conditions, substrate NH-ldc-hGlu-Thr(Bzl)-Ser-Asp-ACC (50uM), 37°C, dot = thousands separator
T3 sequence (P42575 170-333 limits assumed): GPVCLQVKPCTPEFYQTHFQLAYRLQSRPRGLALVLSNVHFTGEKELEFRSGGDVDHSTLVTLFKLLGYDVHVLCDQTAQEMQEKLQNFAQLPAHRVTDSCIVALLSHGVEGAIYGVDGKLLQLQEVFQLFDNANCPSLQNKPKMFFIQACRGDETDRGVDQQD
T3 sequence (P42575 348-452 limits assumed): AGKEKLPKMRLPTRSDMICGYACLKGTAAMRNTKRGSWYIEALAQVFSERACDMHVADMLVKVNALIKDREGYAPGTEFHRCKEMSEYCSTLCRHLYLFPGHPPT
Procedure: as §1, §2

caspase-2 [4] = biological target: T3, caspase-2; assay: Kinetic assay of individual fluorogenic substrates NH-Idc-P4-P3-Dab-Asp-ACC (Example 4); conditions: substrate 10µM, caspase-2 10nM, 37°C; relative to NH-Idc-hGlu-Glu(Chx)-Dab-Asp-ACC
Procedure: Caspase-2 substrates were synthesized according to standard SPPS procedure, purified on HPLC, lyophilized and dissolved in DMSO to the final concentration of 20mM (Poreba et al. 2014, CDD). In particular, the following caspase-2 substrates were synthesized to carry out the present example: [drawing 66] [drawing 67] [drawing 68] [drawing 69] [drawing 70] [drawing 71]
Prior to kinetic assay, substrates (several µL) were diluted in DMSO to the […] (working concentration). Next, 1µL of such substrate was spot into the well of 96-well plate following by the addition of […] of caspase-2 in buffer. Immediately after the enzyme was added, the plate was placed in fluorescence plate reader and the fluorescence was measured over the time in a kinetic mode (excitation 355nm, emission 460nm). The liberation of fluorescence was carried out for 30 minutes, and only linear portion of the plot was taken for analysis to calculate the rate of the reaction. The rate of best cleaved substrate was set to 100% and all other substrates were adjusted accordingly (cleavage rate, %). The final concentration of substrate was 10µM, and the final concentration of caspase-2 was 10nM. The caspase-2 assay buffer was 20mM Pipes, 100mM NaCl, sucrose 10% (w/v), 10mM DTT, pH 7.2-7.4. The caspase-2 was preincubated in buffer at 37°C for 15 min before added to the substrate.

caspase-3 [5] = biological target: T1, caspase-3; assay: P2 substrates screening, rate of substrate hydrolysis (ACC fluorescence); conditions: substrate 10mM (so in the source), caspase-3 15nM, 37°C, rate per 10nM of caspase
Procedure: (§3) The detailed protocol for the expression and purification of human apoptotic caspases can be found elsewhere (Stennicke, 1999). […] The ACC fluorescence was monitored using 355 nm (excitation) and 460 nm (emission) wavelengths. Before kinetic analysis, all caspases were active site-titrated using the zVAD-fmk inhibitor (Cayman Chemical Company, Cat No. 14467). […] Buffers were prepared at room temperature, and all kinetic assays were performed at 37°C. […] The total volume in a single well was […]. The total assay time was 30 min, but only the linear portion of the fluorescence progress curve was taken for the analysis. The kinetic data were analyzed using Graph Pad Prism software. […]

caspase-8 [6] = biological target: T2, caspase-8; assay: as above; conditions: substrate 10mM (so in the source), caspase-8 40nM, 37°C, rate per 10nM of caspase
Procedure: as §3

caspase-2 [7] = biological target: T3, caspase-2; assay: as above; design: made in house
Procedure: as §3

T2 sequence (Q14790 217-374 limits assumed): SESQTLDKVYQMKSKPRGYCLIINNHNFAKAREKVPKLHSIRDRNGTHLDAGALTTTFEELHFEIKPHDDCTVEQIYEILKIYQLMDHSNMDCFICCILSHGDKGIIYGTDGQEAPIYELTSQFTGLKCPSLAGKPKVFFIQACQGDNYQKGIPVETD
T2 sequence (Q14790 385-479 limits assumed): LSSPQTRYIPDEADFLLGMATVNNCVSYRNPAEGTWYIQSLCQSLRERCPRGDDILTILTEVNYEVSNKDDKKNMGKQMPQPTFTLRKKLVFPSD

Compound	RFU/s, %, average (cleavage rate, best substrate set to 100%) (caspase-2 [4])	other results
Cc1cccc(C)c1C(=O)OCC(=O)[C@H](CC(=O)O)NC(=O)[C@H](CCN)NC(=O)[C@@H](NC(=O)[C@H](CCCC(=O)O)NC(=O)[C@@H]1Cc2ccccc2N1)[C@@H](C)OCc1ccccc1 [NH-Idc-hGlu-Thr(Bzl)-Dab-Asp-AOMK]	–	kinact/KI (caspase-3 [1]): 443 M⁻¹ s⁻¹; kinact/KI (caspase-8 [2]; 0.5 h, pH 7.3, pseudo-first-order conditions): 415 M⁻¹ s⁻¹; kobs/I (caspase-2 [3]): 342.000 M⁻¹ s⁻¹
Cc1cccc(C)c1C(=O)OCC(=O)[C@H](CC(=O)O)NC(=O)[C@H](CCCCN)NC(=O)[C@@H](NC(=O)[C@H](CCCC(=O)O)NC(=O)[C@@H]1Cc2ccccc2N1)[C@@H](C)OCc1ccccc1 [NH-Idc-hGlu-Thr(Bzl)-Lys-Asp-AOMK]	–	kobs/I (caspase-3 [1]): 2.570 M⁻¹ s⁻¹; kobs/I (caspase-8 [2]): 9.900 M⁻¹ s⁻¹; kobs/I (caspase-2 [3]): 400.000 M⁻¹ s⁻¹
Cc1cccc(C)c1C(=O)OCC(=O)[C@H](CC(=O)O)NC(=O)[C@H](CCCN)NC(=O)[C@@H](NC(=O)[C@H](CCCC(=O)O)NC(=O)[C@@H]1Cc2ccccc2N1)[C@@H](C)OCc1ccccc1 [NH-Idc-hGlu-Thr(Bzl)-Orn-Asp-AOMK]	–	kinact/KI (caspase-3 [1]): 636 M⁻¹ s⁻¹; kobs/I (caspase-8 [2]): 2.300 M⁻¹ s⁻¹; kobs/I (caspase-2 [3]): 390.000 M⁻¹ s⁻¹
Cc1cccc(C)c1C(=O)OCC(=O)[C@H](CC(=O)O)NC(=O)[C@H](CO)NC(=O)[C@@H](NC(=O)[C@H](CCCC(=O)O)NC(=O)[C@@H]1Cc2ccccc2N1)[C@@H](C)OCc1ccccc1 [NH-Idc-hGlu-Thr(Bzl)-Ser-Asp-AOMK, reference compound]	–	kobs/I (caspase-3 [1]): 21.000 M⁻¹ s⁻¹; kobs/I (caspase-8 [2]): 11.600 M⁻¹ s⁻¹; kobs/I (caspase-2 [3]): 665.000 M⁻¹ s⁻¹
NH-Idc-Asp-Abu-Dab-Asp-ACC	0,0%	–
NH-Idc-Asp-Glu(Chx)-Dab-Asp-ACC	0,2%	–
NH-Idc-Asp-Glu-Dab-Asp-ACC	0,2%	–
NH-Idc-Asp-Thr(Bzl)-Dab-Asp-ACC	0,0%	–
NH-Idc-Asp-Val-Dab-Asp-ACC	0,3%	–
NH-Idc-Ile-Abu-Dab-Asp-ACC	0,0%	–
NH-Idc-Ile-Glu(Chx)-Dab-Asp-ACC	6,3%	–
NH-Idc-Ile-Glu-Dab-Asp-ACC	0,8%	–
NH-Idc-Ile-Thr(Bzl)-Dab-Asp-ACC	0,0%	–
NH-Idc-Ile-Val-Dab-Asp-ACC	0,0%	–
NH-Idc-Leu-Abu-Dab-Asp-ACC	0,0%	–
NH-Idc-Leu-Glu(Chx)-Dab-Asp-ACC	6,9%	–

Compound	RFU/s, %, average (cleavage rate, best substrate set to 100%) (caspase-2 [4])	other results
NH-Idc-Leu-Glu-Dab-Asp-ACC	0,7%	–
NH-Idc-Leu-Thr(Bzl)-Dab-Asp-ACC	0,0%	–
NH-Idc-Leu-Val-Dab-Asp-ACC	0,0%	–
NH-Idc-hGlu-Abu-Dab-Asp-ACC	26,2%	–
NH-Idc-hGlu-Glu(Chx)-Dab-Asp-ACC	100,0% and 91,7%	–
NH-Idc-hGlu-Glu(Me)-Dab-Asp-ACC	76,1%	–
NH-Idc-hGlu-Glu-Dab-Asp-ACC	75,2% and 72,5%	–
NH-Idc-hGlu-Thr(Bzl)-Dab-Asp-ACC	5,9% and 4,6%	–
NH-Idc-hGlu-Thr(Bzl)-Dap-Asp-AOMK	–	kobs/I (caspase-3 [1]): 8.300 M⁻¹ s⁻¹; kobs/I (caspase-8 [2]): 5.300 M⁻¹ s⁻¹; kobs/I (caspase-2 [3]): 372.000 M⁻¹ s⁻¹; SELECTIVITY Caspase2 vs.Caspase3, C2/C3 kobs/I (caspase-2 [3]; division of kobs/I values, caspase-2/caspase-3): 44.8; SELECTIVITY Caspase2 vs.Caspase8, C2/C8 kobs/I (caspase-2 [3]; division of kobs/I values, caspase-2/caspase-8): 70.2
NH-Idc-hGlu-Val-Dab-Asp-ACC	5,6% and 6,5%	–
NH-Idc-hLeu-Abu-Dab-Asp-ACC	0,0%	–
NH-Idc-hLeu-Glu(Chx)-Dab-Asp-ACC	0,7%	–
NH-Idc-hLeu-Glu-Dab-Asp-ACC	0,0%	–
NH-Idc-hLeu-Thr(Bzl)-Dab-Asp-ACC	0,0%	–
NH-Idc-hLeu-Val-Dab-Asp-ACC	0,0%	–
NH-ldc-hGlu-Thr(Bzl)-Ser-Asp-ACC	–	rate of substrate hydrolysis, Caspase-3 (caspase-3 [5]): 4,75 RFU/s/10nM; rate of substrate hydrolysis, Caspase-8 (caspase-8 [6]): 6,57 RFU/s/10nM; Casp-2 vs Casp-3 (caspase-2 [7]; ratio of hydrolysis rates caspase-2/caspase-3): 38,49; Casp-2 vs Casp-8 (caspase-2 [7]; ratio of hydrolysis rates caspase-2/caspase-8): 27,82; rate of substrate hydrolysis, Caspase-2 (caspase-2 [7]; substrate 10mM (so in the source), caspase-2 5nM, 37°C, rate per 10nM of caspase): 182,81 RFU/s/10nM

Reference: patent EP4397674A1, “CASPASE-2 INHIBITOR COMPOUNDS” (Kintsugi Therapeutics S.L., priority 2023, dated 2024)
